{"source": "ChEMBL document CHEMBL1146010", "about": "“Synthesis and in vitro antimycobacterial activity of N1-nicotinoyl-3-(4'-hydroxy-3'-methyl phenyl)-5-[(sub)phenyl]-2-pyrazolines” (2006)", "test_system": "Mycobacterium tuberculosis", "test": "Antimycobacterial activity against isoniazid-resistant Mycobacterium tuberculosis by agar dilution method", "format": "functional"}
{"smiles": "Cc1cc(C2=NN(C(=O)c3ccncc3)C(c3cccc([N+](=O)[O-])c3)C2)ccc1O", "note": "(configuration not stated)", "values": [{"measurement": "MIC", "value": 7.75, "unit": "µM"}]}
{"smiles": "COc1ccc(C2CC(c3ccc(O)c(C)c3)=NN2C(=O)c2ccncc2)c(OC)c1OC", "note": "(configuration not stated)", "values": [{"measurement": "MIC", "value": 0.87, "unit": "µM"}]}
{"smiles": "Cc1cc(C2=NN(C(=O)c3ccncc3)C(c3ccco3)C2)ccc1O", "note": "(configuration not stated)", "values": [{"measurement": "MIC", "value": 0.58, "unit": "µM"}]}
{"smiles": "Cc1cc(C2=NN(C(=O)c3ccncc3)C(c3c(Cl)cccc3Cl)C2)ccc1O", "note": "(configuration not stated)", "values": [{"measurement": "MIC", "value": 0.23, "unit": "µM"}]}
{"smiles": "Cc1cc(C2=NN(C(=O)c3ccncc3)C(c3ccc(Cl)cc3)C2)ccc1O", "note": "(configuration not stated)", "values": [{"measurement": "MIC", "value": 3.98, "unit": "µM"}]}
{"smiles": "COc1ccc(C2CC(c3ccc(O)c(C)c3)=NN2C(=O)c2ccncc2)cc1", "note": "(configuration not stated)", "values": [{"measurement": "MIC", "value": 8.05, "unit": "µM"}]}
{"smiles": "Cc1cc(C2=NN(C(=O)c3ccncc3)C(c3ccccc3)C2)ccc1O", "note": "(configuration not stated)", "values": [{"measurement": "MIC", "value": 4.36, "unit": "µM"}]}
{"smiles": "COc1ccc(C2CC(c3ccc(O)c(C)c3)=NN2C(=O)c2ccncc2)cc1OC", "note": "(configuration not stated)", "values": [{"measurement": "MIC", "value": 0.93, "unit": "µM"}]}
{"smiles": "Cc1cc(C2=NN(C(=O)c3ccncc3)C(c3ccc(N(C)C)cc3)C2)ccc1O", "note": "(configuration not stated)", "values": [{"measurement": "MIC", "value": 1.95, "unit": "µM"}]}
{"smiles": "Cc1cc(C2=NN(C(=O)c3ccncc3)C(c3ccccc3Cl)C2)ccc1O", "note": "(configuration not stated)", "values": [{"measurement": "MIC", "value": 0.26, "unit": "µM"}]}
{"smiles": "Cc1cc(C2=NN(C(=O)c3ccncc3)C(c3ccc(F)cc3)C2)ccc1O", "note": "(configuration not stated)", "values": [{"measurement": "MIC", "value": 0.54, "unit": "µM"}]}
{"smiles": "NNC(=O)c1ccncc1", "note": "[ISONIAZID]", "values": [{"measurement": "MIC", "value": 11.4, "unit": "µM"}]}
